Results reported in ChEMBL document CHEMBL1201862, “PubChem BioAssay data set” (2004).
Active and inactive are the calls of the source.

Experiments:
[1] = molecular target: T1, Protein Tat (Human immunodeficiency virus type 1 group M subtype B (isolate HXB2)(HIV-1), UniProt P04608); assay type: functional;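 further: tat binding to TAR RNA read out by fluorescence polarization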
T1 sequence (P04608 whole entry): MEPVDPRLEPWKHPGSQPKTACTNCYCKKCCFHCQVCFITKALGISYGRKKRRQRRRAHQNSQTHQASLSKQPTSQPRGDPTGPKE

[2] = M. tuberculosis H37Rv growth inhibitors, H37Rv strain (AID 1626); assay type: functional
[3] = molecular target: 5-hydroxytryptamine receptor 1A (Homo sapiens, UniProt P08908); assay type: functional
Sequence of 5-hydroxytryptamine receptor 1A (P08908 whole entry): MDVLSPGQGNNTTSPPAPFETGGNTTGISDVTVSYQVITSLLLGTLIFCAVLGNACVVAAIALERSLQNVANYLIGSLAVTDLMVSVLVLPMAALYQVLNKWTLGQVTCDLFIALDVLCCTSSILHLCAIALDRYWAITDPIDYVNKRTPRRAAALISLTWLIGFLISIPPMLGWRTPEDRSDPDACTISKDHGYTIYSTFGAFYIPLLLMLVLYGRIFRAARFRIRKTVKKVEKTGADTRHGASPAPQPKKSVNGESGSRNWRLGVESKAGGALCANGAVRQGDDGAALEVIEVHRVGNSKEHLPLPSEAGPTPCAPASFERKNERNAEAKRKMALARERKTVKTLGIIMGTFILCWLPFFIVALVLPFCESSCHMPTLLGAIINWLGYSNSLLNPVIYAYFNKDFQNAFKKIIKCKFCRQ

[4] = molecular target: T2, Short transient receptor potential channel 4 (Mus musculus, UniProt Q9QUQ5); assay: mouse TRPC4 channel activators, dose response, cell-based, HEK293 TRPC4/mu-opioid, Fluo-4 calcium (AID 434937); assay type: functional
T2 sequence (Q9QUQ5 whole entry): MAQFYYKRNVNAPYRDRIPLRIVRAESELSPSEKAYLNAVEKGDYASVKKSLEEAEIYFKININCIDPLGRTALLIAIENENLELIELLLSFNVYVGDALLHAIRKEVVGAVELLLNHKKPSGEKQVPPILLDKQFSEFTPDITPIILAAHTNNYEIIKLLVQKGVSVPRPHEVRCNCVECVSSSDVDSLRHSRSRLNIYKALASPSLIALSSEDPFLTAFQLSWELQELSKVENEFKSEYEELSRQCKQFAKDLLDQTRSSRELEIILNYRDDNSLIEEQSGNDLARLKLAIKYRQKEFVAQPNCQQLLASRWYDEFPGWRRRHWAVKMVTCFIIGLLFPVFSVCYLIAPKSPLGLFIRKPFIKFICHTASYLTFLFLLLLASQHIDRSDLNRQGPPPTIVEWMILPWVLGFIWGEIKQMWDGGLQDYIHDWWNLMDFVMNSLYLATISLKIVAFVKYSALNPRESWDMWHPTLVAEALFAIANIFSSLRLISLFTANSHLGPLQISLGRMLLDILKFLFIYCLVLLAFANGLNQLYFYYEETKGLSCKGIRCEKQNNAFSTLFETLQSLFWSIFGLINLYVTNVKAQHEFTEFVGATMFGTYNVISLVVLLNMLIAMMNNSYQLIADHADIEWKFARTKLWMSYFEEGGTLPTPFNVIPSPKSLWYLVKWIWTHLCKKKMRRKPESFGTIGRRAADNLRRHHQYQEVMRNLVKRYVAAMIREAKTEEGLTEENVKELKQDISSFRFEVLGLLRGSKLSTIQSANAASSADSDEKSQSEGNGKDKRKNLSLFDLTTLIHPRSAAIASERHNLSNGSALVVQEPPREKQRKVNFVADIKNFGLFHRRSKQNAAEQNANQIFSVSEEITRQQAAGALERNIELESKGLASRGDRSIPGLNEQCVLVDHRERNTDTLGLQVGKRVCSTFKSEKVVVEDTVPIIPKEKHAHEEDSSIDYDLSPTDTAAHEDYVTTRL

[5] = molecular target: Sphingosine 1-phosphate receptor 2 (Homo sapiens, UniProt O95136); assay: Dose Response Cell Based Assay for Agonists of the S1P2 Receptor. [Related pubchem assays: 729, 736, 843 ]; assay type: functional
Sequence of Sphingosine 1-phosphate receptor 2 (O95136 whole entry): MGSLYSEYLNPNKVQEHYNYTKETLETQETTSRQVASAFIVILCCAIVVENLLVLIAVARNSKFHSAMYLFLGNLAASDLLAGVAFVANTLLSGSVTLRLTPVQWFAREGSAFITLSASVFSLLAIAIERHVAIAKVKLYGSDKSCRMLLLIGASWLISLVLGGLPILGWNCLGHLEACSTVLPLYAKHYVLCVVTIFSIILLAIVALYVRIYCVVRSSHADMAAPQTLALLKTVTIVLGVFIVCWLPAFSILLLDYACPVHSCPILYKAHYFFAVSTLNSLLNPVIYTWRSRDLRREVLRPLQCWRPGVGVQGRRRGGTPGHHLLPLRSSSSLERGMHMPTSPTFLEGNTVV

[6] = P. falciparum Dd2 growth inhibitors, dose response, SYBR Green, dry powder samples (AID 1159566); assay type: functional, cell-based;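 further: potency for growth inhibition with lower SYBR green DNA signal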
[7] = P. falciparum ATP4 D1247Y mutant growth inhibitors, dose response, NITD609-resistant line, SYBR Green, dry powder (AID 1159571); assay type: functional, cell-based;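 further: parasites synchronized at ring stage by sorbitol before testing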
[8] = HepG2 cell cytotoxicity, dose response, cytotoxicity control, cherry-picked samples (AID 1159577); assay type: functional, cell-based
[9] = HepG2 cell cytotoxicity, dose response, cytotoxicity control, plate reader, dry powder samples (AID 1159569); assay type: functional, cell-based;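 further: inhibitor potency with signal falling toward the positive control level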
[10] = P. falciparum 3D7-ScDHODH growth inhibitors, dose response, SYBR Green, dry powder samples (AID 1159570); assay type: functional, cell-based;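 further: parasite growth measured after 72 hours of compound exposure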
[11] = P. falciparum Dd2 growth inhibitors, dose response, SYBR Green, cherry-picked samples (AID 1159567); assay type: functional, cell-based
[12] = T. cruzi growth inhibition in host cells, dose response, cell-based, plate reader, dry powder, set 2 (AID 652275); assay type: functional
[13] = L-6 rat myoblast cytotoxicity, dose response, counter-screen for T. cruzi inhibitor project, cell-based, plate reader, dry powder (AID 651895); assay type: functional
[14] = P. falciparum blood-stage growth inhibition, dose response, NF54 strain, plate reader, dry powder (AID 651889); assay type: functional, cell-based
[15] = T. cruzi amastigote growth inhibition, dose response, Tulahuen strain, L-6 host cells, dry powder (AID 651890); assay type: functional, cell-based
[16] = T. cruzi intracellular amastigote growth inhibition, dose response, imaging, CA-I/72 strain, bovine embryo skeletal muscle, dry powder (AID 651885); assay type: functional, cell-based
[17] = T. b. rhodesiense proliferation inhibition, dose response, STIB900 strain, plate reader, dry powder (AID 651894); assay type: functional, cell-based
[18] = intracellular Trypanosoma cruzi inhibitors in host cells – cell-based, plate reader, cherry-pick samples, set 3, dose response (AID 651818); assay type: functional;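 further: compounds incubated with infected cells for about four days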
[19] = growth inhibition of intracellular T. cruzi, dose response, cell-based, plate reader, dry powder samples (AID 651845); assay type: functional
[20] = L. donovani amastigote growth inhibition, dose response, axenic amastigotes, plate reader, dry powder (AID 651892); assay type: functional, cell-based
[21] = tested on: H4; assay: Luminescence Cell-Based Dose Response HTS to Identify Activators of 5'UTR Stem-Loop Driven Prion Protein mRNA Translation in H4 Neuroglioblastoma Cells. [Related pubchem assays: 1829 (Project Summary), 1814 (Primary HTS)]; assay type: functional; conditions: Homo sapiens
[22] = molecular target: Mitogen-activated protein kinase 10 (Homo sapiens, UniProt P53779); assay: Dose response biochemical screening assay for inhibitors of c-Jun N-Terminal Kinase 3 (JNK3). [Related pubchem assays: 746 ]
Sequence of Mitogen-activated protein kinase 10 (P53779 whole entry): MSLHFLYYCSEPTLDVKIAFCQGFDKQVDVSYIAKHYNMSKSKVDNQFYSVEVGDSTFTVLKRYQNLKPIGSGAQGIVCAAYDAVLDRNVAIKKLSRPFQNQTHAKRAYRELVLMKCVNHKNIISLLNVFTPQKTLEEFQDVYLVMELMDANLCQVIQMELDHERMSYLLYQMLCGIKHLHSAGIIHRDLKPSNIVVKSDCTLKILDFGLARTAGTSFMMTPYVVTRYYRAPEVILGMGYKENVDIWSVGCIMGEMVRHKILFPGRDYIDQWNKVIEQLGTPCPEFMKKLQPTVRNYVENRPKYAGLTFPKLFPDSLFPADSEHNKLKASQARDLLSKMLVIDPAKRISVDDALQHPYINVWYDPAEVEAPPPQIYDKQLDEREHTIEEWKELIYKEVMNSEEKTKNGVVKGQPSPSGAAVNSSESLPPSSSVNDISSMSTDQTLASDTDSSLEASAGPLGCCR

[23] = Luminescence Cell-Based Dose Retest to Confirm Inhibitors of Cancer Stem Cells. [Related pubchem assays (depositor defined):AID2717, AID2721]; assay type: functional; conditions: Homo sapiens
[24] = M. tuberculosis growth inhibition, HTS (AID 449762); assay type: functional
[25] = Concentration-dependent survival of SW480 colon cancer line, luminescence detection with CellTiter-Glo, half-maximal inhibitory concentration (AID 1117338); assay type: functional
[26] = RKO cell viability reduction, dose response, CellTiter-Glo luminescence (AID 1117322); assay type: functional
[27] = CellTiter-Glo luminescent dose response of DLD-1 viability loss (AID 1117352); assay type: functional
[28] = HCT116 cell viability decrease, GSK3B pretreatment – CellTiter-Glo, IC50, dose response (AID 1117339); assay type: functional; conditions: HCT-116
[29] = cytotoxicity toward Colo320 cells – cell-based, CellTiter-Glo luminescence, IC50, dose response (AID 1117334); assay type: functional; conditions: COLO 320
[30] = cytotoxicity toward HT-29 cells – cell-based, CellTiter-Glo luminescence, IC50, dose response (AID 1117330); assay type: functional
[31] = SNU-C1 cell viability reduction, dose response, CellTiter-Glo luminescence (AID 1117323); assay type: functional, cell-based
[32] = cytotoxicity toward HCT116 cells – cell-based, CellTiter-Glo luminescence, IC50, dose response (AID 1117332); assay type: functional; conditions: HCT-116

Q: Which IC50 [1] does the source give for `COc1ccc(NC(=O)CCCSc2ccccc2)cc1` here?
A: > 100 µM (active)

Q: What about the IC50 [2] of the same compound?
A: > 100 µM (active)

Q: What does the source list for `c1ccc2sc(C3CCCNC3)nc2c1` (configuration not stated)?
A: EC50 [3]: > 50 µM (not active); EC50 [4]: 0.0093 µM (active)

Q: For `N#CCN1CCN(CC(=O)Nc2cccc3ccccc23)CC1`, which EC50 [5] is on record?
A: > 50 µM (not active)

Q: For `COc1ccc(NC(=O)Nc2ccc3c(c2)CC(=O)N([C@H](C)CO)C[C@H](C)[C@@H](CN(C)Cc2ccc(C(=O)Nc4ccccc4N)cc2)O3)cc1`, which AC50 [6] is on record?
A: 1.5 µM (active)

Q: And the AC50 [7]?
A: 2.04 µM (active)

Q: What about the AC50 [8] of the same compound?
A: > 39 µM (inactive)

Q: And the AC50 [9]?
A: > 100 µM (inactive)

Q: And the AC50 [10]?
A: 2.3 µM (active)

Q: And the AC50 [11]?
A: 2.22 µM (active)

Q: Which AC50 [12] does the source give for `C[C@@H]1CN([C@H](C)CO)C(=O)c2cccc(NC(=O)c3ccncc3)c2O[C@H]1CN(C)Cc1ccc(Oc2ccccc2)cc1` here?
A: 0.0017 µM (active)

Q: And the IC50 [13]?
A: 13.3 µM (inactive)

Q: And the IC50 [14]?
A: 0.82 µM (inactive)

Q: And the IC50 [15]?
A: 0.031 µM (active)

Q: And the IC50 [16]?
A: 0.03 µM (active)

Q: What about the IC50 [17] of the same compound?
A: 0.242 µM (active)

Q: And the AC50 [18]?
A: 0.08 µM (active)

Q: And the AC50 [19]?
A: 0.00521 µM (active)

Q: What about the IC50 [20] of the same compound?
A: 43.7 µM (inactive)

Q: For `Oc1[nH]c2ccccc2c1/C=N/c1ccc2c(c1)OCO2`, which EC50 [21] is on record?
A: 1.25 µM (active)

Q: What about the IC50 [22] of the same compound?
A: > 93.1 µM (not active)

Q: With `COc1ccc(N/N=C(\C=O)C(=O)c2cccs2)cc1` as the compound, how does the AC50 [23] read?
A: 3.43 µM (active)

Q: And the IC50 [24]?
A: > 100 µM (active)

Q: Which IC50 [25] does the source give for `COC(=O)c1ccccc1C(=O)OC` [DIMETHYL PHTHALATE] here?
A: > 20 µM (inactive)

Q: What about the IC50 [26] of the same compound?
A: > 20 µM (inactive)

Q: And the IC50 [27]?
A: > 20 µM (inactive)

Q: What about the IC50 [28] of the same compound?
A: > 20 µM (inactive)

Q: What about the IC50 [29] of the same compound?
A: > 20 µM (inactive)

Q: What about the IC50 [30] of the same compound?
A: > 20 µM (inactive)

Q: What about the IC50 [31] of the same compound?
A: > 20 µM (inactive)

Q: What about the IC50 [32] of the same compound?
A: > 20 µM (inactive)
